# Biological target: T1, RRP1B Ribosomal RNA processing protein 1 homolog B (Homo sapiens, UniProt Q14684)
# T1 construct: Cells were resuspended in cold PBS on ice and sonicated with a probe sonicator to achieve lysis; endogenous in cells
# T1 sequence (Q14684 1-758): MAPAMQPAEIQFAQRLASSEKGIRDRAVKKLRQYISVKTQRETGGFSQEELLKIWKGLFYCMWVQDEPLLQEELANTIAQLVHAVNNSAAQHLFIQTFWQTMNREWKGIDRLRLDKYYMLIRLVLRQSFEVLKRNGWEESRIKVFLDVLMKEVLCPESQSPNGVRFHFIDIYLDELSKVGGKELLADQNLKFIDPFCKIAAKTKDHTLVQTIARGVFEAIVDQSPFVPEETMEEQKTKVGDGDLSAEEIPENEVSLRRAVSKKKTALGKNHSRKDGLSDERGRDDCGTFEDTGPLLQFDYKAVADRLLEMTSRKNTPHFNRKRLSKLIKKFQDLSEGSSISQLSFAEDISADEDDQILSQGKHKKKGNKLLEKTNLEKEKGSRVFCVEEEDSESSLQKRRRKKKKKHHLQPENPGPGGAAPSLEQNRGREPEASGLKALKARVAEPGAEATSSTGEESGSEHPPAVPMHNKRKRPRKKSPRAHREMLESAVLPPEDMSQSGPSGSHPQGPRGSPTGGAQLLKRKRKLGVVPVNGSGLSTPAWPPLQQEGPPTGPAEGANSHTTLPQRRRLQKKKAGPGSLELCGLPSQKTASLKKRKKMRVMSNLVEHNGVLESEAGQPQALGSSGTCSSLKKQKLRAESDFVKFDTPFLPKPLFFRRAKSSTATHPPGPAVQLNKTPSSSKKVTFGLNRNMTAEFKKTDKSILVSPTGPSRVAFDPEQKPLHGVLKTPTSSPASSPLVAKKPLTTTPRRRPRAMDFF
# Assay: Cysteine liganding, probe competition
# Assay type: binding
# Outline: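 Lysates from probe-sonicated cells in PBS (5 mg/ml proteome) were exposed to compound for 1 hr at 25° C, then labelled with desthiobiotin iodoacetamide probe (10 mM stock) for 1 hr at 25° C. Probe-tagged peptides were streptavidin-enriched after trypsin digestion.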
SMILES,"Liganded (RRP1B Res# 155, uniprot Q14684)",100 Max (uniprot Q14684),100 ave (uniprot Q14684),500 Max (uniprot Q14684),500 ave (uniprot Q14684)
COc1ccc2c(c1)CCCN2C(=O)CCl [KB02],YES,–,–,–,–
O=C(CCl)Nc1cc(C(F)(F)F)cc(C(F)(F)F)c1 [KBO3],–,27.08,18.31,70.79,66.05

# From US20200239530A1, “COMPOUNDS AND METHODS OF MODULATING PROTEIN DEGRADATION” (Vividion Therapeutics, Inc., priority 2017, published 2020)
